Measurements from patent US12240841B2, “FXR small molecule agonist and preparation method therefor and use thereof” (Shanghai Institute of Materia Medica, Chinese Academy of …, priority 2019, dated 2025).
Read-outs that look alike come from different tables or passages of the source.

Assays:
[1] = biological target: T1, FXR receptor (Homo sapiens, UniProt Q96RI1); assay: FXR activity at the cell level (FXRE luciferase reporter in 293T cells); format: cell-based; details: for Activity relative to OCA (%) 10 μM: luciferase reporter
T1 construct: expressed in transfected cells; host or cells: 293T cells
T1 sequence (Q96RI1 1-486): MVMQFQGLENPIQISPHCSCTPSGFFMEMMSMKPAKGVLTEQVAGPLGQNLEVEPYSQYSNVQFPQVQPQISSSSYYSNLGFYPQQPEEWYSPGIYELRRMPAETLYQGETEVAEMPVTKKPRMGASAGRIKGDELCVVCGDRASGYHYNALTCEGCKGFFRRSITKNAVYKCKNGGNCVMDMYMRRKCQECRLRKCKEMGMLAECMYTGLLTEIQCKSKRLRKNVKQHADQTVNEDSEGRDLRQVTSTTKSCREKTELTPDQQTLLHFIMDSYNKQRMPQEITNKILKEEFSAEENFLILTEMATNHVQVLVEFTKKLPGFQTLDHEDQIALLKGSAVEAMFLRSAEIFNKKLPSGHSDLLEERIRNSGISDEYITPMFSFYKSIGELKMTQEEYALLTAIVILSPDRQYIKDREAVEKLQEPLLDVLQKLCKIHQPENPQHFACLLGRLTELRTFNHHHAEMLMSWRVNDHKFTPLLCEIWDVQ
Experimental: The cells were cultured for 24 hours to ensure plasmid expression. Then the FXR receptor agonist to be tested was added and acted for 18 hours. The fluorescence intensity was detected using luciferase kit (steady-Glo Luciferase Assay system) to reflect the compound's activation efficiency on the FXR receptor. […] The appropriate concentration interval was selected, and the dose-dependent relationship, that is, the EC50 value, was calculated.

[2] = biological target: T2, recombinant GST-FXR fusion protein (Homo sapiens, UniProt Q96RI1); assay: FXR activity at the molecular level (AlphaScreen); format: biochemical
T2 sequence (Q96RI1 1-486): T1 sequence (Q96RI1 1-486)
Experimental: Test Method for FXR Activity at the Molecular Level
FXR activity was determined using recombinant GST-FXR fusion protein by Perkin Elmer's AlphaScreen detection reagent. The reaction in this method was carried out in a 384-well plate, and the total reaction volume was 15 μL. The mixture of protein, agonist, co-regulatory factor, AlphaScreen® acceptor beads and AlphaScreen® donor beads was reacted in a buffer containing Tris-HCl 50 mM (pH7.4), 50 mM NaCl, BSA 0.1%, and 1 mM DTT. The FXR activity was reflected by the fluorescence signal intensity at 570 nm wavelength detected by the Envision fluorescence detector. The value of EC50 was calculated by the software Graphpad Prism 5.

[3] = 293T cells, FXRE luciferase reporter, read-out: EC50 (cell level)

Structure (SMILES)	Activity relative to OCA (%) 10 μM ([1]; 293T cells)	EC50 [1, 3]	EC50 [2]	EC50 [1]
O=c1[nH]c(-c2ccc(N3CCC(OCc4c(-c5c(Cl)cccc5Cl)noc4C4CC4)CC3)cc2)no1 [Example 2]	174%	1 nM	72 nM	–
O=c1[nH]c(-c2cccc(N3CCCC(OCc4c(-c5c(Cl)cccc5Cl)noc4C4CC4)CC3)c2)no1 (stereo not drawn) [Example 3]	87%	14 nM	1810 nM	–
O=c1[nH]c(-c2ccc(N3CCCC(OCc4c(-c5c(Cl)cccc5Cl)noc4C4CC4)CC3)cc2)no1 (stereo not drawn) [Example 4]	97%	0.6 nM	15 nM	–
O=c1[nH]c(-c2cccc(N3CCC(OCc4c(-c5c(Cl)cccc5Cl)noc4C4CC4)C3)c2)no1 (stereo not drawn) [Example 5]	83%	844 nM	4700 nM	–
O=c1[nH]c(-c2ccc(N3CCC(OCc4c(-c5c(Cl)cccc5Cl)noc4C4CC4)C3)cc2)no1 (stereo not drawn) [Example 6]	99%	32 nM	3920 nM	–
O=c1[nH]c(-c2ccc(N3C4CCC3CC(OCc3c(-c5c(Cl)cccc5Cl)noc3C3CC3)C4)cc2)no1 (stereo not drawn) [Example 7]	88%	6 nM	6.7 nM	–
O=c1[nH]c(-c2ccc(N3CCC(OCc4c(-c5ccccc5OC(F)(F)F)noc4C4CC4)CC3)cc2)no1 [Example 9]	90%	4 nM	55 nM	–
Cc1onc(-c2c(Cl)cccc2Cl)c1COC1CCN(c2ccc(-c3noc(=O)[nH]3)cc2)CC1 [Example 10]	202%	0.2 nM	1040 nM	–
CC(C)c1onc(-c2c(Cl)cccc2Cl)c1COC1CCN(c2ccc(-c3noc(=O)[nH]3)cc2)CC1 [Example 11]	164%	0.7 nM	439 nM	–
O=c1[nH]c(-c2ccc(N3CCC(OCc4c(-c5c(Cl)cccc5Cl)noc4-c4ccccc4)CC3)cc2)no1 [Example 12]	63%	35 nM	2880 nM	–
O=c1[nH]c(-c2ccc(N3CCC(OCc4c(-c5c(Cl)cccc5Cl)noc4C4CC4)CC3)nc2)no1 [Example 13]	111%	0.7 nM	178 nM	–
O=c1[nH]c(-c2ccc(N3CCC(OCc4c(-c5c(Cl)cccc5Cl)noc4C4CC4)CC3)cn2)no1 [Example 14]	74%	5 nM	598 nM	–
Cc1cc(-c2noc(=O)[nH]2)ccc1N1CCC(OCc2c(-c3c(Cl)cccc3Cl)noc2C2CC2)CC1 [Example 15]	159%	3 nM	2650 nM	–
O=c1[nH]c(-c2ccc(N3CCC(OCc4c(-c5c(Cl)cccc5Cl)noc4C4CC4)CC3)cc2F)no1 [Example 16]	168%	0.2 nM	195 nM	–
O=c1[nH]c(-c2c(F)cc(N3CCC(OCc4c(-c5c(Cl)cccc5Cl)noc4C4CC4)CC3)cc2F)no1 [Example 17]	161%	0.3 nM	257 nM	–
O=c1[nH]c(-c2ccc(N3CCC(OCc4c(-c5c(Cl)cccc5Cl)noc4C4CC4)CC3)c(F)c2)no1 [Example 18]	150%	2 nM	614 nM	–
Cn1cc(-c2noc(=O)[nH]2)c2cc(N3CCC(OCc4c(-c5c(Cl)cccc5Cl)noc4C4CC4)CC3)ccc21 [Example 19]	132%	285 nM	3140 nM	–

Structure (SMILES)	Activity relative to OCA (%) 10 μM ([1]; 293T cells)	EC50 [1, 3]	EC50 [2]	EC50 [1]
S=c1[nH]c(-c2ccc(N3CCC(OCc4c(-c5c(Cl)cccc5Cl)noc4C4CC4)CC3)cc2)no1 [Example 20]	146%	5 nM	5470 nM	–
O=c1[nH]c(-c2ccc(N3CCC(OCc4c(-c5ccccc5C(F)(F)F)noc4C4CC4)CC3)nc2)no1 [Example 21]	117%	1.32 nM	96.7 nM	–
O=c1[nH]c(-c2ccc(N3CCC(OCc4c(-c5ccccc5C(F)(F)F)noc4C4CC4)CC3)cn2)no1 [Example 22]	108%	1.99 nM	386 nM	–
O=c1[nH]c(-c2ccc(N3CCC(OCc4c(-c5ccccc5C(F)(F)F)noc4C4CC4)CC3)c(F)c2)no1 [Example 23]	109%	2.22 nM	392 nM	–
O=c1[nH]c(-c2ccc(N3CCC(OCc4c(-c5ccccc5C(F)(F)F)noc4C4CC4)CC3)cc2F)no1 [Example 24]	105%	0.196 nM	59 nM	–
O=c1[nH]c(-c2c(F)cc(N3CCC(OCc4c(-c5ccccc5C(F)(F)F)noc4C4CC4)CC3)cc2F)no1 [Example 25]	103%	0.12 nM	84.7 nM	–
O=c1[nH]c(-c2ccc(N3CCC(OCc4c(-c5ccccc5OC(F)(F)F)noc4C4CC4)CC3)nc2)no1 [Example 26]	103%	0.254 nM	70 nM	–
O=c1[nH]c(-c2ccc(N3CCC(OCc4c(-c5ccccc5OC(F)(F)F)noc4C4CC4)CC3)cn2)no1 [Example 27]	106%	0.357 nM	20.9 nM	–
O=c1[nH]c(-c2ccc(N3CCC(OCc4c(-c5ccccc5OC(F)(F)F)noc4C4CC4)CC3)c(F)c2)no1 [Example 28]	107%	0.617 nM	380 nM	–
O=c1[nH]c(-c2ccc(N3CCC(OCc4c(-c5ccccc5OC(F)(F)F)noc4C4CC4)CC3)cc2F)no1 [Example 29]	120%	0.938 nM	108 nM	–
O=c1[nH]c(-c2c(F)cc(N3CCC(OCc4c(-c5ccccc5OC(F)(F)F)noc4C4CC4)CC3)cc2F)no1 [Example 30]	120%	0.255 nM	89 nM	–
O=c1[nH]c(-c2ccc(N3C4CCC3CC(OCc3c(-c5c(F)cccc5F)noc3C3CC3)C4)nc2)no1 (stereo not drawn) [Example 31]	116%	0.608 nM	11.3 nM	–
O=c1[nH]c(-c2ccc(N3C4CCC3CC(OCc3c(-c5c(Cl)cccc5Cl)noc3C3CC3)C4)nc2)no1 (stereo not drawn) [Example 32]	103%	0.0783 nM	4.33 nM	–
O=c1[nH]c(-c2ccc(N3C4CCC3CC(OCc3c(-c5ccccc5C(F)(F)F)noc3C3CC3)C4)nc2)no1 (stereo not drawn) [Example 33]	141%	0.387 nM	18.8 nM	–
O=c1[nH]c(-c2ccc(N3C4CCC3CC(OCc3c(-c5ccccc5OC(F)(F)F)noc3C3CC3)C4)nc2)no1 (stereo not drawn) [Example 34]	122%	0.388 nM	19.7 nM	–
O=c1[nH]c(-c2ccc(N3C4CCC3CC(OCc3c(-c5c(F)cccc5F)noc3C3CC3)C4)cc2F)no1 (stereo not drawn) [Example 35]	117%	0.318 nM	18.5 nM	–
O=c1[nH]c(-c2ccc(N3C4CCC3CC(OCc3c(-c5c(Cl)cccc5Cl)noc3C3CC3)C4)cc2F)no1 (stereo not drawn) [Example 36]	102%	–	4.22 nM	0.0317 nM
